Measured values taken from patent US11058680B2, “Combinations of opioid/TLR4 antagonists and acetaminophen for use in the treatment of emotional pain and insomnia” (Allodynic Threapeutics, LLC, priority 2016, dated 2021).

What was measured:
[1] = tested on: patient with post herpetic neuralgia, chronic lower back pain and anger with spouse; experiment: Example 8 case study; format: in vivo, human; details: naltrexone 5 mg/clonidine 0.025 mg twice daily; naltrexone 5 mg twice daily; naltrexone 2.25 mg and acetaminophen 325 mg four times daily
[2] = tested on: patient with lower back and leg pain and emotional pain due to separation from a child; experiment: Example 12 case study, patient diary
[3] = Migraine open-label pilot study: side effects (AEs present) at each time point; format: in vivo, human
Protocol: The majority of the patients remained in the clinic for observation for 2 hours after dosing. […] Headache pain was assessed on a 4-point scale (0=none; 1=mild; 2=moderate; 3=severe). The assessment of photophobia, phonophobia, nausea, and neck/shoulder pain was assessed as present or absent. The assessment of emotional pain was recorded on a 4-point scale (0=none, 1=mild, 2=moderate, 3=severe). The assessment of difficulty sleeping or falling asleep (insomnia) was assessed on a 4-point scale (0=none, 1=mild, 2=moderate, 3=severe) at baseline, for the night before treatment and for the following nights at 24, and 48 hours. Patients recorded side effects severity at each time point. Patients recorded the time of the first rescue medication dose and all additional headache medications used within 48 hours. Patients were required to stay awake to record their assessments in the first 2 hours, sleeping was permitted thereafter. While asleep, assessments were completed according to patients' best estimation. For data analysis, it was assumed that a migraine attack is a unique patient. Patients were asked to specify (yes or no answer) to whether they experienced emotional pain symptoms such as: hurt feelings, sadness, fear, or anger. Patients who replied positively to having emotional pain were asked to specify the cause into one of the following options: relationship, work/school, money/debt, health, or loss/grief.

[4] = Ibuprofen 800 mg T.I.D. PRN 2006-2010, Naltrexone 2.25 mg Q.I.D./Clonidine 0.025 mg Q.I.D. 2010-2015, APAP 325 mg Q.I.D. Jun. 29-Jul. 6, 2015, Naltrexone 2.5 mg Q.I.D. to Jul. 8, 2015, Naltrexone 2.25 mg/APAP 325 mg Q.I.D. Jul. 9-Oct. 4, 2015

## O=C1CC[C@@]2(O)[C@H]3Cc4ccc(O)c5c4[C@@]2(CCN3CC2CC2)[C@H]1O5 [naltrexone]
[1]
  mean average pain intensity: 1.5 /10
[2]; [4]
  API, average pain intensity (0-10 NRS): 4
  Insomnia (0-10 NRS): 6.5
  PRSI, Pain Related Sleep Interference (0-10 NRS): 5.5
  WEP, Worst Emotional Pain (0-10 NRS): 5.5
  WPI, Worst Pain Intensity (0-10 NRS): 5
[2]; Naltrexone 2.25 mg Q.I.D./Clonidine 0.025 mg Q.I.D. 2010-2015, APAP 325 mg Q.I.D. Jun. 29-Jul. 6, 2015, Naltrexone 2.5 mg Q.I.D. to Jul. 8, 2015, Naltrexone 2.25 mg/APAP 325 mg Q.I.D. Jul. 9-Oct. 4, 2015
  PGIC (1-7 Likert): 6
[2]; naltrexone/clonidine, acetaminophen 325 mg four times daily 5 days, naltrexone alone 12 days, naltrexone 2.25 mg and acetaminophen 325 mg four times daily almost three months
  emotional pain due to separation from child (patient report): same level of emotional pain
[3]; 7 min, NTX/APAP 2.25 mg/325 mg, NTX 2.25 mg
  AEs present: 0 (0)
[3]; 7 min, NTX/APAP 3.25 mg/325 mg, NTX 3.25 mg
  AEs present: 0
[3]; 7 min, NTX/APAP 5 mg/325 mg, NTX 5 mg
  AEs present: 1
[3]; 7 min, all doses combined
  AEs present: 1 (16)
[3]; 15 min, NTX/APAP 2.25 mg/325 mg, NTX 2.25 mg
  AEs present: 1 (11)
[3]; 15 min, NTX/APAP 3.25 mg/325 mg, NTX 3.25 mg
  AEs present: 0
[3]; 15 min, NTX/APAP 5 mg/325 mg, NTX 5 mg
  AEs present: 0
[3]; 15 min, NTX/APAP […]325 mg, NTX 1.5 mg
  AEs present: 0
[3]; 15 min, all doses combined
  AEs present: 2 (13)
[3]; 30 min, NTX/APAP 2.25 mg/325 mg, NTX 2.25 mg
  AEs present: 1 (11)
[3]; 30 min, NTX/APAP 3.25 mg/325 mg, NTX 3.25 mg
  AEs present: 2 (66)
[3]; 30 min, NTX/APAP 5 mg/325 mg, NTX 5 mg
  AEs present: 1 (100)
[3]; 30 min, NTX/APAP […]325 mg, NTX 1.5 mg
  AEs present: 0 (0)
[3]; 30 min, all doses combined
  AEs present: 4 (25)
[3]; 1 h, NTX/APAP 2.25 mg/325 mg, NTX 2.25 mg
  AEs present: 1 (11)
[3]; 1 h, NTX/APAP 3.25 mg/325 mg, NTX 3.25 mg
  AEs present: 1
[3]; 1 h, NTX/APAP 5 mg/325 mg, NTX 5 mg
  AEs present: 1
[3]; 1 h, NTX/APAP […]325 mg, NTX 1.5 mg
  AEs present: 0
[3]; 1 h, all doses combined
  AEs present: 3 (19)
[3]; 90 min, NTX/APAP 2.25 mg/325 mg, NTX 2.25 mg
  AEs present: 0 (0)
[3]; 90 min, NTX/APAP 3.25 mg/325 mg, NTX 3.25 mg
  AEs present: 1 (33)
[3]; 90 min, NTX/APAP 5 mg/325 mg, NTX 5 mg
  AEs present: 1 (100)
[3]; 90 min, NTX/APAP […]325 mg, NTX 1.5 mg
  AEs present: 0 (0)
[3]; 90 min, all doses combined
  AEs present: 2 (13)
[3]; 2 h, NTX/APAP 2.25 mg/325 mg, NTX 2.25 mg
  AEs present: 0 (0)
[3]; 2 h, NTX/APAP 3.25 mg/325 mg, NTX 3.25 mg
  AEs present: 1 (33)
[3]; 2 h, NTX/APAP 5 mg/325 mg, NTX 5 mg
  AEs present: 1
[3]; 2 h, NTX/APAP […]325 mg, NTX 1.5 mg
  AEs present: 0 (0)
[3]; 2 h, combined doses
  AEs present: 2 (13)
[3]; 3 h, NTX/APAP 2.25 mg/325 mg, NTX 2.25 mg
  AEs present: 0 (0)
[3]; 3 h, NTX/APAP 3.25 mg/325 mg, NTX 3.25 mg
  AEs present: 1 (33)
[3]; 3 h, NTX/APAP 5 mg/325 mg, NTX 5 mg
  AEs present: 1
[3]; 3 h, NTX/APAP […]325 mg, NTX 1.5 mg
  AEs present: 0
[3]; 3 h, combined doses
  AEs present: 2 (13)
[3]; 4 h, NTX/APAP 2.25 mg/325 mg, NTX 2.25 mg
  AEs present: 0 (0)
[3]; 4 h, NTX/APAP 3.25 mg/325 mg, NTX 3.25 mg
  AEs present: 1 (33)
[3]; 4 h, NTX/APAP 5 mg/325 mg, NTX 5 mg
  AEs present: 1
[3]; 4 h, NTX/APAP […]325 mg, NTX 1.5 mg
  AEs present: 0
[3]; 4 h, combined doses
  AEs present: 2 (13)
[3]; 6 h, NTX/APAP 2.25 mg/325 mg, NTX 2.25 mg
  AEs present: 0 (0)
[3]; 6 h, NTX/APAP 3.25 mg/325 mg, NTX 3.25 mg
  AEs present: 1 (33)
[3]; 6 h, NTX/APAP 5 mg/325 mg, NTX 5 mg
  AEs present: 1
[3]; 6 h, NTX/APAP […]325 mg, NTX 1.5 mg
  AEs present: 0
[3]; 6 h, combined doses
  AEs present: 2 (13)
[3]; 12 h, NTX/APAP 2.25 mg/325 mg, NTX 2.25 mg
  AEs present: 0 (0)
[3]; 12 h, NTX/APAP 3.25 mg/325 mg, NTX 3.25 mg
  AEs present: 1 (33)
[3]; 12 h, NTX/APAP 5 mg/325 mg, NTX 5 mg
  AEs present: 1
[3]; 12 h, NTX/APAP […]325 mg, NTX 1.5 mg
  AEs present: 0
[3]; 12 h, combined doses
  AEs present: 2 (13)
[3]; 24 h, NTX/APAP 2.25 mg/325 mg, NTX 2.25 mg
  AEs present: 0
[3]; 24 h, NTX/APAP 3.25 mg/325 mg, NTX 3.25 mg
  AEs present: 1 (33)
[3]; 24 h, NTX/APAP 5 mg/325 mg, NTX 5 mg
  AEs present: 1
[3]; 24 h, NTX/APAP […]325 mg, NTX 1.5 mg
  AEs present: 0
[3]; 24 h, combined doses
  AEs present: 2 (13)
[3]; 48 h, NTX/APAP 2.25 mg/325 mg, NTX 2.25 mg
  AEs present: 0 (0)
[3]; 48 h, NTX/APAP 3.25 mg/325 mg, NTX 3.25 mg
  AEs present: 1 (33)
[3]; 48 h, NTX/APAP 5 mg/325 mg, NTX 5 mg
  AEs present: 0
[3]; 48 h, NTX/APAP […]325 mg, NTX 1.5 mg
  AEs present: 0
[3]; 48 h, combined doses
  AEs present: 1
